One data set deals with MCF7 cells. Nature of the data set: Inhibition of the proliferation of MCF7 cells (CellTiter-Glo). The format is cell-based. The following applies: Homo sapiens, MCF7, 168 h; 7 days treatment; read-out: MCF-7 cell proliferation inhibition IC50. The method, then:
The purpose of the experiment is to determine the inhibitory effect of the compounds of the present invention on the proliferation of MCF7 cells in vitro, and to evaluate the activity of the compounds according to IC50 and maximum inhibitory efficiency.
MCF7 cells (ATCC, HTB-22) were cultured in DMEM (Gibco, 11995-065) complete medium containing 10% fetal bovine serum. On the first day of the experiment, MCF7 cells were inoculated in a 384-well plate at a density of 500 cells/well using the complete medium, and cultured in a 37° C., 5% CO2 cell incubator overnight. The next day, the compounds to be tested were added for drug treatment, and the compound solution with a stock concentration of 10 mM was diluted with Echo550 (Labcyte Inc.) and transferred to each cell culture well. Each compound with the starting concentration for treatment of 100 nM in cells was subjected to 3-fold gradient dilution with 9 concentration points. A blank control containing 0.3% DMSO was set, and double replicate wells as controls were set at each concentration point. The culture was cultured in a 37° C., 5% CO2 cell incubator for 7 days, and the cell culture plate was taken out on day 8.

Data set [1] in a line: Apparent solubility in phosphate buffer at pH 7.4. The format is physicochemical. The following applies: aqueous buffer, kinetic from dmso stock, phosphate buffer pH 7.4, 25° C. The method, then:
The compounds to be tested were prepared according to the method described. The control drug progesterone was purchased from Sigma. Phosphate buffer with pH 7.4 was prepared in our laboratory. Acetonitrile and methanol were purchased from Fisher. Other reagents were purchased from the market.
10 mM stock solution of substance to be tested and control drug progesterone was prepared with DMSO.
30 µL of 10 mM stock solution of substance to be tested was taken, and added to the corresponding position of the corresponding 96-well plate in the specified order. 970 µL of phosphate buffer (pH 7.4) was added to the corresponding vial in the sample plate. The experiment was performed in parallel duplicate. A stirring rod was added to each vial and a polytetrafluoroethylene/silicone stopper was covered thereon. The sample tray was then placed in an Eppendorf Thermomixer Comfort and shaken at 1100 rpm for 2 hours at 25° C. After 2 hours, the stopper was removed, and the stirring rod was sucked away by a large magnet, then the sample was transferred from the sample plate to the filter plate. A vacuum pump was used to generate negative pressure and the sample was filtered. 5 µL of the filtrate was transferred to a new sample plate, and then 5 µL of DMSO and 490 µL of 50% ACN(IS).H2O (internal standard acetonitrile : water = 1 : 1) were added. Depending on the peak shape, it may be possible to dilute the sample diluent with a certain proportion of 50% ACN(IS).H2O for better peak shape. […]
The loading plate was placed in the loading tray of the autosampler, and the sample was evaluated by liquid chromatography-mass spectrometry analysis.
All calculations are performed via Microsoft Excel. Analysis and quantification of the sample filtrate was accomplished by using the liquid chromatography-mass spectrometry to characterize and quantify the peaks of the standards with known concentrations. The apparent solubility of the compounds of the present invention in phosphate buffer (PH 7.4) was calculated.

Data set [2] is described as follows: Plasma protein binding rate, equilibrium dialysis, rat plasma. It counts as in vitro ADME. The settings on record: pH 7.4, SD rat plasma, 6 hours dialysis. The method, then:
The protein binding rate of the compounds of the present invention in the plasma of five species (human, monkey, dog, rat and mouse) was determined by the following test method.
• 1. Human plasma (BioIVT), beagle dog plasma (BioIVT), SD rat plasma (BioIVT), CD-1 mouse plasma (BioIVT); • 2. 96-well equilibrium dialysis plate (HTDialysis LLC, Gales Ferry, CT, HTD96B), equilibrium dialysis membrane (MWCO 12-14 K, #1101); • 3. Positive control compound warfarin; • 4. ABI QTrap 5500 liquid chromatography-mass spectrometry.
1. Preparation of a buffer with a concentration of 100 mM sodium phosphate and 150 mM NaCl: an alkaline solution with a concentration of 14.2 g/L Na2HPO4 and 8.77 g/L NaCl was prepared with ultrapure water, and an acidic solution with a concentration of 12.0 g/L NaH2PO4 and 8.77 g/L NaCl was prepared with ultrapure water. The alkaline solution was titrated with the acidic solution to pH 7.4 to prepare a buffer with a concentration of 100 mM sodium phosphate and 150 mM NaCl.
2. Preparation of dialysis membrane: the dialysis membrane was soaked in ultrapure water for 60 minutes to separate the membrane into two pieces, then soaked in 20% ethanol for 20 minutes, and finally soaked in the buffer used for dialysis for 20 minutes.
3. Preparation of plasma: the frozen plasma was quickly thawed at room temperature, then the plasma was centrifuged at 3,220 g at 4° C. for 10 min to remove clots, and the supernatant was collected into a new centrifuge tube. The pH of the plasma was measured and recorded, and the plasma with pH of 7-8 was used.
3. Preparation of compound-containing plasma samples: 10 mM stock solution of compounds of the present invention or positive control compounds were diluted with DMSO to obtain 200 µM working solution. […]
The peak areas of the compounds on the buffer side and the plasma side were determined. […]
All the data was calculated by the Microsoft Excel software. The plasma protein binding rate values of the compounds of the present invention were calculated.
In general terms: In equilibrium dialysis only unbound substance equilibrates across the membrane.

This note sets out measurements from patent publication US20230348459A1, “PYRROLIDINE COMPOUND AND USE THEREOF” (SIMCERE PHARMACEUTICAL CO., LTD., priority 2020, published 2023).

Values after ≈ are worked out from the molar mass of the structure shown.

As a reminder, the solubility is how much of the substance goes into solution per volume. One may read the fraction unbound as the share of the substance not bound to proteins or other matrix. Higher therefore signals weak binding. Regarding `C[C@@H]1Cc2c([nH]c3ccccc23)C(c2c(F)cc(N[C@H]3CCN(CCCF)C3)cc2F)N1CC(F)(F)F` (stereo in doubt) [Example 4, (S)-N-(3,5-difluoro-4-((1S,3R)-3-methyl-2-(2,2,2-trifluoroethyl)-2,3,4,9-tetrahydro-1H-pyridino[3,4-b]indol-1-yl)phenyl)-1-(3-fluoropropyl)pyrrolidin-3-amine], the IC50 in the data set on MCF7 cells was determined as 0.23 nM. The solubility at 2 h in data set [1] was < 0.3 µM. The fraction unbound at 6 h, 1 µM in data set [2] was 0.002.

`C[C@@H]1Cc2c([nH]c3ccccc23)C(c2c(F)cc(N[C@H]3CCN(CCCF)C3)cc2F)N1CC(F)(F)CO` (stereo in doubt) [Example 7, 3-((1S,3R)-1-(2,6-difluoro-4-(((S)-1-(3-fluoropropyl)pyrrolidin-3-yl)amino)phenyl)-3-methyl-3,4-dihydro-1H-pyridino [3,4-b]indole-2(9H)-yl)-2,2-difluoropropane-1-ol]: the IC50 in the data set on MCF7 cells turned out to be 0.12 nM. In addition, in data set [1], the solubility at 2 h came out at 4 µM (≈ 2.15 µg/mL). The compound further gave a fraction unbound at 6 h, 1 µM in data set [2] of 0.015.

Turning to `C[C@@H]1Cc2c([nH]c3ccccc23)[C@@H](c2ccc(N[C@H]3CCN(CCCF)C3)cn2)N1CC(F)(F)F` [Example 3, N-((S)-1-(3-fluoropropyl)pyrrolidin-3-yl)-6-((1S,3R)-3-methyl-2-(2,2,2-trifluoroethyl)-2,3,4,9-tetrahydro-1H-pyridino[3,4-b]indol-1-yl)pyridine-3-amine], in the data set on MCF7 cells, the IC50 stood at 0.27 nM. The solubility at 2 h in data set [1] is 92 µM (≈ 45 µg/mL). Besides, the fraction unbound at 6 h, 1 µM in data set [2] is 0.029.
